Laboratory results as given in ChEMBL document CHEMBL4373709 (J Med Chem, 2019).
The source made the active and inactive calls. No cut-off for these calls is given here.

How the values were obtained:
[1] = biological target: Neurotensin receptor type 2 (Homo sapiens) (UniProt O95665); assay: Allosteric modulation of NTR2 (unknown origin) assessed as induction of NT (8 to 13) peptide-mediated beta-arrestin recruitment at >80 uM by pathhunter assay
[2] = biological target: T1, Neurotensin receptor type 1 (Homo sapiens, UniProt P30989); assay: Allosteric modulation of human GFP-fused PK-tagged Gq-coupled NTR1 expressed in CHOK1 cells assessed as induction of NT (8 to 13) peptide-mediated beta-arrestin recruitment measured after 90 mins by pathhunter assay relative to NT (8 to 13) peptide; type: cell-based
T1 sequence (P30989 whole entry, the tested form may be a part): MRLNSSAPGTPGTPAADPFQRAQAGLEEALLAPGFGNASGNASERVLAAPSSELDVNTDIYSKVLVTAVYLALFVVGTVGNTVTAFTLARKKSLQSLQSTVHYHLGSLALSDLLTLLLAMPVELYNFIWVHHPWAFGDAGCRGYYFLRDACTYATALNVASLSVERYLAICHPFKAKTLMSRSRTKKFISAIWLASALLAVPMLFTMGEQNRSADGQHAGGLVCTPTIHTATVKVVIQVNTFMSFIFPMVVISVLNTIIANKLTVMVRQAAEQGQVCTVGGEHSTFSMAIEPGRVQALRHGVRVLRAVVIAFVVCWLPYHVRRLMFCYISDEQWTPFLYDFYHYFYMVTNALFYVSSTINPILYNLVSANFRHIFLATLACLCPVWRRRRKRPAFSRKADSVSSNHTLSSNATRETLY

[3] = biological target: T1, Neurotensin receptor type 1; assay: Allosteric modulation of human GFP-fused PK-tagged Gq-coupled NTR1 expressed in CHOK1 cells assessed as induction of NT (8 to 13) peptide-mediated beta-arrestin recruitment measured after 90 mins by pathhunter assay; type: cell-based
[4] = biological target: D(1A) dopamine receptor (Homo sapiens) (UniProt P21728); assay: Binding affinity to D1R (unknown origin) at 5 uM relative to control
Chain of D(1A) dopamine receptor (Homo sapiens) (P21728 whole entry): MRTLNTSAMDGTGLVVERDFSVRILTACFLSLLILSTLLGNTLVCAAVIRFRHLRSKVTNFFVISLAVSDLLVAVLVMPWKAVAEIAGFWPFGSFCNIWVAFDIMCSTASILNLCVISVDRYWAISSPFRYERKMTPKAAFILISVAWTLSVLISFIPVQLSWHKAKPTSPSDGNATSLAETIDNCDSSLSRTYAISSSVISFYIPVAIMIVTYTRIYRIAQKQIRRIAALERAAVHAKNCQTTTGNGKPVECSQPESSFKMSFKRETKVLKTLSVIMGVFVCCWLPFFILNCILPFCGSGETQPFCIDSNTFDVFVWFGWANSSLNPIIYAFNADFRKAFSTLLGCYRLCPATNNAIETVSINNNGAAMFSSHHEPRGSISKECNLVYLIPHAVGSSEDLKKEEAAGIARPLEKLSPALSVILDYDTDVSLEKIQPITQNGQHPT

[5] = biological target: Histamine H1 receptor (Homo sapiens) (UniProt P35367); assay: Binding affinity to H1R (unknown origin) at 5 uM relative to control
Chain of Histamine H1 receptor (Homo sapiens) (P35367 whole entry): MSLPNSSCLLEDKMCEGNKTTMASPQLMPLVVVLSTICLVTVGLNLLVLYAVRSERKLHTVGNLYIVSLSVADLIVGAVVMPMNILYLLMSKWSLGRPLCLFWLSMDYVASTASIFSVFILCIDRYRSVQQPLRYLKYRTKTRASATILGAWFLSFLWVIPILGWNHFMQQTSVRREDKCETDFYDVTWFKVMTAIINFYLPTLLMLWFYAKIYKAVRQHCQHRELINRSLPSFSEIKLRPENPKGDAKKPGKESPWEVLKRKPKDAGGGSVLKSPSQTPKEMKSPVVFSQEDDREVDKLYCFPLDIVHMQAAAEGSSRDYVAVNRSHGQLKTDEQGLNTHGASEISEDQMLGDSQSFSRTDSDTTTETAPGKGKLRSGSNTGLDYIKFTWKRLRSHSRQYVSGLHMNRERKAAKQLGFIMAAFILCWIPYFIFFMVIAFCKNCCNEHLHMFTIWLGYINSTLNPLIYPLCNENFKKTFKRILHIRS

[6] = biological target: Neurotensin receptor type 2 (Homo sapiens) (UniProt O95665); assay: Positive allosteric modulation of recombinant human NTR2 expressed in HEK293 cells assessed as increase in [125I]-neurotensin binding measured after 3 hrs; type: cell-based
[7] = biological target: T2, Alpha-2A adrenergic receptor (Homo sapiens) (UniProt P08913); assay: Binding affinity to alpha2A adrenoceptor (unknown origin) at 5 uM relative to control
T2 sequence (whole entry): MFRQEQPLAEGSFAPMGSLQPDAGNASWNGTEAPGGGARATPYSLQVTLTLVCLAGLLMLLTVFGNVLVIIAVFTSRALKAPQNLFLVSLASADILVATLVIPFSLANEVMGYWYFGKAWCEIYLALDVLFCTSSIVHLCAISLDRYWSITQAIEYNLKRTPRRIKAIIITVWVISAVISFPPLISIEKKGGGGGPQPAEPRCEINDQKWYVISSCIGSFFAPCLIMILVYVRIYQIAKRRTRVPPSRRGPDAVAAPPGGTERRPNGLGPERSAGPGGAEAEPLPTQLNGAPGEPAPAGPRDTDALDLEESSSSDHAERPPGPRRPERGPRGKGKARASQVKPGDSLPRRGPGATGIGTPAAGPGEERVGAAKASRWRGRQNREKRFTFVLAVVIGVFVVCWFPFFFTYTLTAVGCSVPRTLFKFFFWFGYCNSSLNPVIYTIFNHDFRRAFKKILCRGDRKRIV

[8] = biological target: Kappa-type opioid receptor (Homo sapiens) (UniProt P41145); assay: Allosteric modulation of human PK-tagged Gi/Go-coupled KOR expressed in CHOK1 cells assessed as induction of dynorphin A-mediated beta-arrestin recruitment by pathhunter assay; type: cell-based
Chain of Kappa-type opioid receptor (Homo sapiens) (P41145 whole entry): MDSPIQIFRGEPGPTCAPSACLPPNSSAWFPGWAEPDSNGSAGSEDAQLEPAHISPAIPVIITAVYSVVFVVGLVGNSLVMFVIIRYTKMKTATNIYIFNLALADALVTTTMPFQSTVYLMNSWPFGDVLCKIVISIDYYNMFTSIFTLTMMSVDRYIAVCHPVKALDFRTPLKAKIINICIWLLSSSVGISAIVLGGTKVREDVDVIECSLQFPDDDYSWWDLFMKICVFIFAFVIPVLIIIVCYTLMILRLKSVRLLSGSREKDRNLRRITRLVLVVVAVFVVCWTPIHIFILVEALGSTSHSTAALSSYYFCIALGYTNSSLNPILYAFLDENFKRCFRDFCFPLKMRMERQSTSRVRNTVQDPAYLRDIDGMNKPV

[9] = biological target: 5-hydroxytryptamine receptor 2B (Homo sapiens) (UniProt P41595); assay: Binding affinity to 5HT2B (unknown origin) at 5 uM relative to control
Chain of 5-hydroxytryptamine receptor 2B (Homo sapiens) (P41595 whole entry, the tested form may be a part): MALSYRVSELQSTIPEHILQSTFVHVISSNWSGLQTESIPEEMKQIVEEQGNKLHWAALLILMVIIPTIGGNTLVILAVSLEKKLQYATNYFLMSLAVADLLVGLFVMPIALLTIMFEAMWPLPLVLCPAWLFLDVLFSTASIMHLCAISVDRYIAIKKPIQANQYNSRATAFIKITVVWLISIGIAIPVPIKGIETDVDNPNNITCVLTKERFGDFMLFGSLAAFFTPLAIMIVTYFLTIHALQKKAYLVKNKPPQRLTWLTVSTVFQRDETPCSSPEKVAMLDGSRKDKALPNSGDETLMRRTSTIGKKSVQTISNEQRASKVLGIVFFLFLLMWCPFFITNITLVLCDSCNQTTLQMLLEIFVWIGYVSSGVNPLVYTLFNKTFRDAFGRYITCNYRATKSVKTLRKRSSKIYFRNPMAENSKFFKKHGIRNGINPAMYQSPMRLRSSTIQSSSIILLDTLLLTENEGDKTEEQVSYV

[10] = biological target: T1, Neurotensin receptor type 1; assay: Allosteric modulation of human GFP-fused PK-tagged Gq-coupled NTR1 expressed in CHOK1 cells assessed as induction of NT (8 to 13) peptide-mediated beta-arrestin recruitment at 0.5 to 356 nM measured after 90 mins by pathhunter assay; type: cell-based
[11] = biological target: Neurotensin receptor type 1 (Mus musculus) (UniProt O88319); assay: Positive allosteric modulation of NTR1 in ICR mouse brain assessed as increase in [125I]-neurotensin binding measured after 20 mins; type: tissue-based
Chain of Neurotensin receptor type 1 (Mus musculus) (O88319 whole entry): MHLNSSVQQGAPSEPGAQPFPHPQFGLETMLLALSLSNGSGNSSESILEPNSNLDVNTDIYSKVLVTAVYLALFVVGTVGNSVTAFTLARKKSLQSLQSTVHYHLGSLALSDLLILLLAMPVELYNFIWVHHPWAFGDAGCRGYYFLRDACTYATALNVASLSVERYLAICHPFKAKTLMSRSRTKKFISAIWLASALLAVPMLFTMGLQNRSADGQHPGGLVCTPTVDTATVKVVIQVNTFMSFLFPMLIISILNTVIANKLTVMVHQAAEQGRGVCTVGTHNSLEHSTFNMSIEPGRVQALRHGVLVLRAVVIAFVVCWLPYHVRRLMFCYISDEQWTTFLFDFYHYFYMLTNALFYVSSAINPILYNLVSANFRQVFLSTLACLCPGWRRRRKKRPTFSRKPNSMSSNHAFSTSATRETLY

[12] = biological target: G-protein coupled receptor 35 (Homo sapiens) (UniProt Q9HC97); assay: Allosteric modulation of human PK-tagged Gi/Go-coupled GPR35 expressed in CHOK1 cells assessed as induction of zaprinast-mediated beta-arrestin recruitment by pathhunter assay; type: cell-based
Chain of G-protein coupled receptor 35 (Homo sapiens) (Q9HC97 whole entry): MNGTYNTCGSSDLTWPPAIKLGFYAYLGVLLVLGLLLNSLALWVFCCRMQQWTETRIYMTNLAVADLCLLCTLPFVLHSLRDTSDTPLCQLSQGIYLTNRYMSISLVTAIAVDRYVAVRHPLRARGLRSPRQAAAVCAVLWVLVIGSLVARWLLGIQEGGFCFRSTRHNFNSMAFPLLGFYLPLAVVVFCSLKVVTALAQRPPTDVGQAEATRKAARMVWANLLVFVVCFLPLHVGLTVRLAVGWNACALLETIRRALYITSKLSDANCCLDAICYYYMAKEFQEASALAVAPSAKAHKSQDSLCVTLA

[13] = biological target: T1, Neurotensin receptor type 1; assay: Agonist activity at NTR1 (unknown origin) expressed in CHO cells assessed as effect on calcium flux by Fluo-4 NW calcium dye based fluorescence assay; type: functional, cell-based
Mus musculus [14] = assay: Suppression of hyperlocomotion in DAT knockout C57BL/6J mouse assessed as reduction in total distance traveled at 10 to 100 mg/kg, po measured up to 2 hrs by open field test; type: functional, organism-based
Mus musculus [15] = assay: Suppression of hyperlocomotion in DAT knockout C57BL/6J mouse assessed as reduction in total distance traveled at 12 mg/kg, ip measured up to 2 hrs by open field test; type: functional, organism-based
[16] = biological target: T1, Neurotensin receptor type 1; assay: Positive allosteric modulation of recombinant human NTR1 expressed in HEK293 cells assessed as increase in [125I]-neurotensin binding measured after 45 mins relative to control; type: cell-based
[17] = biological target: G-protein coupled receptor 55 (Homo sapiens) (UniProt Q9Y2T6); assay: Allosteric modulation of human PK-tagged Gq-coupled GPR55 expressed in CHOK1 cells assessed as induction of L-alpha-Lysophosphatidylinositol-mediated beta-arrestin recruitment by pathhunter assay; type: functional, cell-based
Chain of G-protein coupled receptor 55 (Homo sapiens) (Q9Y2T6 whole entry): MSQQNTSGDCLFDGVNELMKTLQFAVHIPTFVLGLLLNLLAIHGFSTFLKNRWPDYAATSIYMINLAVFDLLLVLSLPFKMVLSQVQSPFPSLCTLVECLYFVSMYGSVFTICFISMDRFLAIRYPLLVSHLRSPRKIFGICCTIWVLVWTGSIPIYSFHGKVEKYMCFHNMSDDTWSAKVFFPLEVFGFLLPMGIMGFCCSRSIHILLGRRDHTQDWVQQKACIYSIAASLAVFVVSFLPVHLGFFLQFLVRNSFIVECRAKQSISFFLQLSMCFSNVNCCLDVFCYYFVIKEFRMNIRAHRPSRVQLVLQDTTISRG

Chain of Neurotensin receptor type 2 (Homo sapiens) (O95665 whole entry, the tested form may be a part): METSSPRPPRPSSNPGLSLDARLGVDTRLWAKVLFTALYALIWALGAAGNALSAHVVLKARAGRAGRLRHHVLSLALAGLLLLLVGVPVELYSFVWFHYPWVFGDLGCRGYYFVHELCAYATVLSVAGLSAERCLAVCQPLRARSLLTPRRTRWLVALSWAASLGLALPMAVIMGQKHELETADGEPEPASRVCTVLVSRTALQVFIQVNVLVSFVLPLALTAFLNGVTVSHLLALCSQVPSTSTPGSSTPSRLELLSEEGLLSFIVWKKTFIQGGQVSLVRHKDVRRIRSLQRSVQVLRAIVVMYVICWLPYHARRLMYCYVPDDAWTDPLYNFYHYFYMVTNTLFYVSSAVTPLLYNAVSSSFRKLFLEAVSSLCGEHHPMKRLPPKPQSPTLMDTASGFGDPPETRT

Row | SMILES | Activity [1] | Emax [2] [%] | EC50 [3] [nM] | other results
1 | COc1ccccc1C1CCN(c2nc(C3(F)CC3)nc3ccc(N(C)CCN4CCOCC4)cc23)CC1 | inactive | 97 | 1720 | –
2 | COc1ccccc1C1CCN(c2nc(C3CC3)nc3ccc(N4CC[C@H](OC)C4)cc23)CC1 | inactive | 82 | 810 | –
3 | COc1ccccc1C1CCN(c2nc(C3CC3)nc3c(F)cc(N(C)CCO)cc23)CC1 | inactive | 100 | 160 | –
4 | COc1ccccc1C1CCN(c2nc(C3CC3)nc3ccc(N(C)CCO)c(F)c23)CC1 | inactive | 95 | 590 | –
5 | CCCN(C)c1ccc2nc(C3(F)CC3)nc(N3CCC(c4ccccc4OC)CC3)c2c1 | inactive | 80 | 1450 | –
6 | COCCN(C)c1ccc2nc(C3(C)CC3)nc(N3CCC(c4ccccc4OC)CC3)c2c1 | inactive | 60 | 2230 | –
7 | COc1ccccc1C1CCN(c2nc(C3(C)CC3)nc3ccc(N(C)CCO)cc23)CC1 | inactive | 90 | – | –
8 | COc1ccccc1C1CCN(c2nc(C3CC3)nc3ccc(N4CC[C@@H](O)C4)cc23)CC1 | inactive | 79 | 440 | –
9 | COc1ccccc1C1CCN(c2nc(C3(F)CC3)nc3ccc(N(C)CCO)cc23)CC1 | inactive | 100 | – | Activity [4]: 36%; Activity [5]: 75%; Activity [6]: inactive; Activity [7]: 55%; Activity [8]: inactive; Activity [9]: 42%; Activity [10]: inactive; Activity [11]: Active; Activity [12]: inactive; Activity [13]: inactive; Activity (Mus musculus [14]): Active; Activity (Mus musculus [15]): Active; Emax [16]: 140%; Activity [17]: inactive
10 | COc1ccccc1C1CCN(c2nc(C3CC3)nc3ccc(N4CCC(OC)CC4)cc23)CC1 | inactive | 79 | 2780 | –
11 | COc1ccccc1C1CCN(c2nc(C3(C)CC3)nc3ccc(N(C)CCN4CCOCC4)cc23)CC1 | inactive | 71 | 3360 | –
12 | CCN(C)c1cccc2nc(C3CC3)nc(N3CCC(c4ccccc4OC)CC3)c12 | inactive | 60 | 6710 | –
13 | COc1ccccc1C1CCN(c2nc(C3CC3)nc3ccc(N(C)CCO)c(Cl)c23)CC1 | inactive | 91 | 500 | –
14 | COc1ccccc1C1CCN(c2nc(C3CC3)nc3cc(Cl)c(N(C)CCO)cc23)CC1 | inactive | 98 | 600 | –
15 | COc1ccccc1C1CCN(c2nc(C3CC3)nc3c(C)cc(N(C)CCO)cc23)CC1 | inactive | 87 | 160 | –
16 | COc1ccccc1C1CCN(c2nc(C3CC3)nc3ccc(N4CC[C@H](O)C4)cc23)CC1 | inactive | 78 | 1010 | –
17 | COc1ccccc1N1CCN(c2nc(C3CC3)nc3ccc(N(C)C)cc23)CC1 | – | – | 710 | –
18 | COCCN(C)c1ccc2nc(C3(F)CC3)nc(N3CCC(c4ccccc4OC)CC3)c2c1 | inactive | 86 | 1060 | –
19 | COc1cc2nc(C3CC3)nc(N3CCN(c4ccccc4OC)CC3)c2cc1OC | inactive | – | 2870 | Activity [8]: inactive; Activity [12]: inactive; Activity [13]: inactive; Activity [17]: inactive
20 | COc1ccccc1C1CCN(c2nc(C3CCC3)nc3ccc(N(C)CCO)cc23)CC1 | inactive | 80 | 1050 | –
21 | CCCN(C)c1ccc2c(N3CCC(c4ccccc4OC)CC3)nc(C3CC3)nc2c1 | inactive | 86 | 10000 | –
22 | COc1ccccc1C1CCN(c2nc(C3CC3)nc3ccc(N4CCC(O)CC4)cc23)CC1 | inactive | 82 | 6720 | –
